Experiments:
Type in all cases: cell-based
ARPE-19 cells = test: Transdifferentiation of ARPE-19 cells into eye neuronal cells (PAX6 staining); conditions: Homo sapiens, 40 hours, PAX6 antibody staining
Description: The above synthesized compounds were screened using ARPE-19 cells [a spontaneously arising retinal pigment epithelia (RPE) cell line] to determine their ability to transdifferentiate ARPE-19 into eye neuronal cells [photoreceptors].
ARPE-19 cells are cultured in standard culture medium containing Dulbecco's Modified Eagle's Medium and Ham's F12 Nutrient Mixture (DMEM/F12) mix (1:1)+GlutaMax with 1% penicillin-Streptomycin and 10% FBS (Fetal Bovine Serum). Cells are incubated at 37° C. with 5% CO2. Cells are trypsinized and plated onto 384-well pre-spotted plate at a density of 3000 cells/well in 50 uL of media. Plating media:DMEM/F12 (1:1)+3% charcoal filtered-FBS+GlutaMax+1% pen/Strep. Cells are incubated at 37° C. with 5% CO2. At 40 hours, cells were fixed for 15 min with 10% Buffered Formalin. Cells were then washed 3 times with PBS for 5 min each, permeablize using 0.3% Triton X-100 in 1×PBS for 30 min, block for 1 h with 2% BSA in 1×PBS with 0.1% Triton X-100. The primary antibody (1:100 PAX6 Santa Cruz Biotech; sc-81649) was diluted and 10 μL/well was added to the cells. The cells were incubated overnight at 4° C. The plates were washed 3× with PBS before applying the secondary antibody (goat Anti-mouse 488), shake for 1 h in complete darkness, aspirate secondary, add 10 μL of DAPI (diamidino-2-phenylindole) (1 μg/mL), shake for 10 min. Wash 3× in PBS and scan on Thermo Fisher Scientific cell-Insight CX5. Readings were normalized to DMSO only treated cells, and normalized activities were utilized for EC50 calculations using the dose-response log (activator) vs. response-variable slope (four parameters) nonlinear regression feature available in GraphPad Prism 5.0 or 6.0.

[1] = system: Wnt activity (Sp5-Luc reporter, SW480 colon carcinoma cells); test: Screening assay for Wnt activity: Sp5-Luc reporter gene assay in SW480 cells; conditions: Homo sapiens, 42 h incubation, luminescence
Procedure, shortened: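 IC50 values come from variable-slope four-parameter fits of luciferase signal normalized to DMSO wells. Stable Sp5-Luc reporter SW480 colon carcinoma cells were exposed to compounds in a 3-fold dilution series (source plates from 10 mM stock) for forty-two hours at 37 °C.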

[2] = system: primary human fibroblasts derived from IPF patients (LL29 cells); test: Inhibition of fibrosis: TGF-β1-treated primary human fibroblasts from IPF patients (LL29), αSMA staining; conditions: Fibroblast, 96 h, TGF-β1 20 ng/mL, 4 days, % αSMA-positive cells
Procedure, shortened: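 […] (0.1% DMSO) on LL29 cells in F12 with 1% FBS, with TGF-β1 (20 ng/mL) added 1 h after plating; 4 days at 37 °C. SYTOX-positive dead cells were excluded and the % αSMA-positive cells was imaged, normalized to TGF-β1/DMSO wells, triplicates; EC50 by non-linear regression.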

| Structure (SMILES) | EC50 (ARPE-19 cells) [nM] | IC50 [1] [nM] | EC50 [2] [nM] |
| --- | --- | --- | --- |
| Fc1cncc(-c2ccc3[nH]nc(-c4nc5c(N6CCOCC6)nccc5[nH]4)c3c2)c1 [Compound 2275, 4-(2-(5-(5-Fluoropyridin-3-yl)-1H-indazol-3-yl)-1H-imidazo[4,5-c]pyridin-4-yl)morpholine] | 43.4 | 80 | – |
| Cn1cc(-c2ccc3[nH]nc(-c4nc5c(N6CCOCC6)nccc5[nH]4)c3c2)cn1 [Compound 2280, 4-(2-(5-(1-Methyl-1H-pyrazol-4-yl)-1H-indazol-3-yl)-1H-imidazo[4,5-c]pyridin-4-yl)morpholine] | 2 | 15 | – |
| CN1CCN(c2nccc3[nH]c(-c4n[nH]c5ccc(-c6cnn(C7CC7)c6)cc45)nc23)CC1 [Compound 2284, 2-(5-(1-Cyclopropyl-1H-pyrazol-4-yl)-1H-indazol-3-yl)-4-(4-methylpiperazin-1-yl)-1H-imidazo[4,5-c]pyridine] | 6 | 90 | – |
| O=C(Nc1cncc(-c2ccc3[nH]nc(-c4nc5c(-c6cccc(F)c6)nccc5[nH]4)c3c2)c1)C1CC1 [Compound 19, N-(5-(3-(4-(3-Fluorophenyl)-1H-imidazo[4,5-c]pyridin-2-yl)-1H-indazol-5-yl)pyridin-3-yl)cyclopropanecarboxamide] | – | 1 | 9 |
| CN1CCN(c2nccc3[nH]c(-c4n[nH]c5ccc(-c6cnn(C)c6)cc45)nc23)CC1 [Compound 1916, 2-(5-(1-Methyl-1H-pyrazol-4-yl)-1H-indazol-3-yl)-4-(4-methylpiperazin-1-yl)-1H-imidazo[4,5-c]pyridine] | 3.7 | 65 | – |
| CC(C)(C)CC(=O)Nc1cncc(-c2ccc3[nH]nc(-c4nc5c(-c6ccccc6F)nccc5[nH]4)c3c2)c1 [Compound 68, N-(5-(3-(4-(2-Fluorophenyl)-1H-imidazo[4,5-c]pyridin-2-yl)-1H-indazol-5-yl)pyridin-3-yl)-3,3-dimethylbutanamide] | – | 20 | 9 |
